Assays:
[1] = target: Epidermal growth factor receptor (Homo sapiens, UniProt P00533); experiment: Enzyme Assay; conditions: pH 7.5
Protocol: (§1) The EGFR, HER2 and HER4 kinase assay were performed using radiolabeled [gamma-32P] ATP from GE Healthcare.

[2] = target: Receptor tyrosine-protein kinase erbB-4 (Homo sapiens, UniProt Q15303); experiment: Enzyme Assay; conditions: pH 7.5
Protocol: as §1

Epidermal growth factor receptor, sequence (P00533 whole entry): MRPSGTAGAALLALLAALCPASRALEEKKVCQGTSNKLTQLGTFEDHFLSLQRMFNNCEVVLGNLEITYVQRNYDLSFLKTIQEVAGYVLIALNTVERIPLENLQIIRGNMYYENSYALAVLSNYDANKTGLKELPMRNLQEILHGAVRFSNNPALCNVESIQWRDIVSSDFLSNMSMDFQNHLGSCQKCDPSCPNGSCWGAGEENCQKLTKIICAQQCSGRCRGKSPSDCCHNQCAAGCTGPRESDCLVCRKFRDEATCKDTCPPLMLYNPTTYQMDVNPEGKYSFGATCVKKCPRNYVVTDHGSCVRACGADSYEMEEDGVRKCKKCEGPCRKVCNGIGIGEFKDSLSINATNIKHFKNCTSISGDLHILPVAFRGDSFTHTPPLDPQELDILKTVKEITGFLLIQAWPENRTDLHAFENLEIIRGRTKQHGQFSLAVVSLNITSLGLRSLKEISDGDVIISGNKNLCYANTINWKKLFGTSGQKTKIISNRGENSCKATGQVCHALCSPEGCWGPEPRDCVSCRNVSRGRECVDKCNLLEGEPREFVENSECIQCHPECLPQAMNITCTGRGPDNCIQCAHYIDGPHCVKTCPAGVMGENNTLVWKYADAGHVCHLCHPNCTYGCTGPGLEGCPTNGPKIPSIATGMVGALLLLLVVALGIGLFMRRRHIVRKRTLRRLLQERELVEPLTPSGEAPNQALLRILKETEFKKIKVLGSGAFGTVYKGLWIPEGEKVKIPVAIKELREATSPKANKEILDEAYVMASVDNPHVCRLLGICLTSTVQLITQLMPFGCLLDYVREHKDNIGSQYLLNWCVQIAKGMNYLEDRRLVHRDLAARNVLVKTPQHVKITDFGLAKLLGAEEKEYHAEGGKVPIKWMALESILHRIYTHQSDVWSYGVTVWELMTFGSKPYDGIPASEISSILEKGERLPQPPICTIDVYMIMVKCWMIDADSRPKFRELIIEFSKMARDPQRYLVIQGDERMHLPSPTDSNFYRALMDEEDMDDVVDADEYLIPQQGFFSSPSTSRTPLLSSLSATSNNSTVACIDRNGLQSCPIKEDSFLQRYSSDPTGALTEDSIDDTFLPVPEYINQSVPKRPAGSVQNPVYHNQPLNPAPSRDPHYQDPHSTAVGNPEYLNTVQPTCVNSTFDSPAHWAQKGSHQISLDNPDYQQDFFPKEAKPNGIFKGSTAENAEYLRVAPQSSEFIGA
Receptor tyrosine-protein kinase erbB-4, sequence (Q15303 whole entry): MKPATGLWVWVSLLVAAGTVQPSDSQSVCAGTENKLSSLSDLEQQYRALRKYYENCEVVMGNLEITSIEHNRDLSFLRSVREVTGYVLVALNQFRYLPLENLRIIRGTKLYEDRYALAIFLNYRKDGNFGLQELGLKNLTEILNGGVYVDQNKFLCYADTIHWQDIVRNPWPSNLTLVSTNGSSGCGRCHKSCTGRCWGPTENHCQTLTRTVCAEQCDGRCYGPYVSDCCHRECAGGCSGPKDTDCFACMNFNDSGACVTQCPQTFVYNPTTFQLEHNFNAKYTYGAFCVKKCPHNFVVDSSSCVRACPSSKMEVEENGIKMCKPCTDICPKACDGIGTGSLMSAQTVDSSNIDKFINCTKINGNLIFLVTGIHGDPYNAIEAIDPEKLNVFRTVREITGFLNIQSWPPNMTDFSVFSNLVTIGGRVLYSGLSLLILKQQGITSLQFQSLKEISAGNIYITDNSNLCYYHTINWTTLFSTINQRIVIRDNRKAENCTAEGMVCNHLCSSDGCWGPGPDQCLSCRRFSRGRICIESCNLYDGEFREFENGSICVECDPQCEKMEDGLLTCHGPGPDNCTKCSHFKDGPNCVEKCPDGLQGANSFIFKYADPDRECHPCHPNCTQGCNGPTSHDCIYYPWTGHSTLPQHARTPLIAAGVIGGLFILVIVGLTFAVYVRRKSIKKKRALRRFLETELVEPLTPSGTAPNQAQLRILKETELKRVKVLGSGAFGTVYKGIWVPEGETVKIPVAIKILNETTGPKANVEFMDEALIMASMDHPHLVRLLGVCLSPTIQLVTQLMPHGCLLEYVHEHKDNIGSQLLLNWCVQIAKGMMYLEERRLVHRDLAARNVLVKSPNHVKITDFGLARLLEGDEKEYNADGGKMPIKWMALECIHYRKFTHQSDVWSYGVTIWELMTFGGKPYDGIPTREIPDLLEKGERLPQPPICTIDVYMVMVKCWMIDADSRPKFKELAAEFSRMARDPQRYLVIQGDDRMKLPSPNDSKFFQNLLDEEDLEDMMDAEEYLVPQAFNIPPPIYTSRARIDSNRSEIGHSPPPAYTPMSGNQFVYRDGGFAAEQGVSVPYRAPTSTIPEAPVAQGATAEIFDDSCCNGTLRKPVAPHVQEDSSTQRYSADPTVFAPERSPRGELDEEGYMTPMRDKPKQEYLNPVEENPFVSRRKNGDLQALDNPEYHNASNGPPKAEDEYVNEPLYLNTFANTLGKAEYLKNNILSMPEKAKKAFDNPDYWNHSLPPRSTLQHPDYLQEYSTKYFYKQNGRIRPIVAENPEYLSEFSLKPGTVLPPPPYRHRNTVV

OCCOCn1ccc2ncnc(Nc3cnc(Oc4cccc(C(F)(F)F)c4)c(Cl)c3)c21 [SYR127063]
IC50 [1]: 429 nM
IC50 [2]: > 10000 nM

From BindingDB's records for doi:10.1074/jbc.M110.206193 (Takeda Pharmaceutical, 2011)
